Data published in ChEMBL document CHEMBL3885881, “DrugMatrix”.

Species on record: Rattus norvegicus
Experiment: DrugMatrix - Regimen: Daily Repeat
Assay type: toxicity, organism-based, Sprague-Dawley
Set-up: regimen Daily Repeat, gender Male, age 6-8 weeks
Conditions: in vivo, sc, 1915 mg/kg, route subcutaneous, dose level High, […]; for ABSOLUTE BASOPHIL / ABSOLUTE EOSINOPHIL / ABSOLUTE LYMPHOCYTE / ABSOLUTE MONOCYTE / ABSOLUTE SEGMENTED NEUTROPHIL / BASOPHIL / EOSINOPHIL / ERYTHROCYTE COUNT / HEMATOCRIT / HEMOGLOBIN / LEUKOCYTE COUNT / LYMPHOCYTE / MEAN CORPUSCULAR HEMOGLOBIN / MEAN CORPUSCULAR HEMOGLOBIN CONCENTRATION / MEAN CORPUSCULAR VOLUME / MONOCYTE / NEUTROPHIL / NUCLEATED RED BLOOD CELLS / PLATELET COUNT: tissue Blood; for ALANINE AMINOTRANSFERASE / ALBUMIN / ALKALINE PHOSPHATASE / ASPARTATE AMINOTRANSFERASE / BLOOD UREA NITROGEN / CARBON DIOXIDE / CHLORIDE / CHOLESTEROL / CREATINE PHOSPHOKINASE / CREATININE / GLUCOSE / LACTATE DEHYDROGENASE / LIPASE / PHOSPHORUS / POTASSIUM / SODIUM / TOTAL BILIRUBIN / TOTAL PROTEIN / URIC ACID: tissue Plasma

Question: Which results are given for `Cc1cc(O)cc(C)c1Cl` [CHLOROXYLENOL]?
Answer: ABSOLUTE BASOPHIL (72 h, time 3 day): 0 CELLS/uL; ABSOLUTE EOSINOPHIL (72 h, time 3 day): 0 CELLS/uL; ABSOLUTE LYMPHOCYTE (72 h, time 3 day): 13518.33 CELLS/uL; ABSOLUTE MONOCYTE (72 h, time 3 day): 372.33 CELLS/uL; ABSOLUTE SEGMENTED NEUTROPHIL (72 h, time 3 day): 2242.67 CELLS/uL; BASOPHIL (72 h, time 3 day): 0%; EOSINOPHIL (72 h, time 3 day): 0%; ERYTHROCYTE COUNT (72 h, time 3 day): 5.43 x10E6/uL; HEMATOCRIT (72 h, time 3 day): 33.13%; HEMOGLOBIN (72 h, time 3 day): 12.03 G/DL; LEUKOCYTE COUNT (72 h, time 3 day): 16.13 x10E3/uL; LYMPHOCYTE (72 h, time 3 day): 84.33%; MEAN CORPUSCULAR HEMOGLOBIN (72 h, time 3 day): 22.17 pg; MEAN CORPUSCULAR HEMOGLOBIN CONCENTRATION (72 h, time 3 day): 36.33 G/DL; MEAN CORPUSCULAR VOLUME (72 h, time 3 day): 61.07 fL; MONOCYTE (72 h, time 3 day): 2.33%; NEUTROPHIL (72 h, time 3 day): 13.33%; NUCLEATED RED BLOOD CELLS (72 h, time 3 day): 0 /100WBC; PLATELET COUNT (72 h, time 3 day): 1126.33 x10E3/uL; ALANINE AMINOTRANSFERASE (72 h, time 3 day): 50.33 u/L; ALBUMIN (72 h, time 3 day): 3.67 G/DL; ALKALINE PHOSPHATASE (72 h, time 3 day): 250.33 u/L; ASPARTATE AMINOTRANSFERASE (72 h, time 3 day): 81.67 u/L; BLOOD UREA NITROGEN (72 h, time 3 day): 18 mg/dL; CARBON DIOXIDE (72 h, time 3 day): 24.33 mmol/L; CHLORIDE (72 h, time 3 day): 104.33 MEQ/L; CHOLESTEROL (72 h, time 3 day): 76.67 mg/dL; CREATINE PHOSPHOKINASE (72 h, time 3 day): 276 u/L; CREATININE (72 h, time 3 day): 0.18 mg/dL; GLUCOSE (72 h, time 3 day): 175 mg/dL; LACTATE DEHYDROGENASE (72 h, time 3 day): 84.67 u/L; LIPASE (72 h, time 3 day): 8.67 u/L; PHOSPHORUS (72 h, time 3 day): 11.43 mg/dL; POTASSIUM (72 h, time 3 day): 6.05 MEQ/L; SODIUM (72 h, time 3 day): 145.23 MEQ/L; TOTAL BILIRUBIN (72 h, time 3 day): 0.13 mg/dL; TOTAL PROTEIN (72 h, time 3 day): 5.67 G/DL; URIC ACID (72 h, time 3 day): 2.13 mg/dL; ABSOLUTE BASOPHIL (120 h, time 5 day): 0 CELLS/uL; ABSOLUTE EOSINOPHIL (120 h, time 5 day): 164.67 CELLS/uL; ABSOLUTE LYMPHOCYTE (120 h, time 5 day): 16889.67 CELLS/uL; ABSOLUTE MONOCYTE (120 h, time 5 day): 1259.67 CELLS/uL; ABSOLUTE SEGMENTED NEUTROPHIL (120 h, time 5 day): 6552.67 CELLS/uL; BASOPHIL (120 h, time 5 day): 0%; EOSINOPHIL (120 h, time 5 day): 0.67%; ERYTHROCYTE COUNT (120 h, time 5 day): 5.49 x10E6/uL; HEMATOCRIT (120 h, time 5 day): 33.1%; HEMOGLOBIN (120 h, time 5 day): 12.6 G/DL; LEUKOCYTE COUNT (120 h, time 5 day): 24.87 x10E3/uL; LYMPHOCYTE (120 h, time 5 day): 68%; MEAN CORPUSCULAR HEMOGLOBIN (120 h, time 5 day): 23.07 pg; MEAN CORPUSCULAR HEMOGLOBIN CONCENTRATION (120 h, time 5 day): 38.1 G/DL; MEAN CORPUSCULAR VOLUME (120 h, time 5 day): 60.43 fL; MONOCYTE (120 h, time 5 day): 5%; NEUTROPHIL (120 h, time 5 day): 26.33%; NUCLEATED RED BLOOD CELLS (120 h, time 5 day): 0 /100WBC; PLATELET COUNT (120 h, time 5 day): 1493 x10E3/uL; ALANINE AMINOTRANSFERASE (120 h, time 5 day): 55.67 u/L; ALBUMIN (120 h, time 5 day): 3.17 G/DL; ALKALINE PHOSPHATASE (120 h, time 5 day): 330 u/L; ASPARTATE AMINOTRANSFERASE (120 h, time 5 day): 87.67 u/L; BLOOD UREA NITROGEN (120 h, time 5 day): 18.33 mg/dL; CARBON DIOXIDE (120 h, time 5 day): 32 mmol/L; CHLORIDE (120 h, time 5 day): 103.67 MEQ/L; CHOLESTEROL (120 h, time 5 day): 77 mg/dL; CREATINE PHOSPHOKINASE (120 h, time 5 day): 151 u/L; CREATININE (120 h, time 5 day): 0.22 mg/dL; GLUCOSE (120 h, time 5 day): 164 mg/dL; LACTATE DEHYDROGENASE (120 h, time 5 day): 64 u/L; LIPASE (120 h, time 5 day): 8 u/L; PHOSPHORUS (120 h, time 5 day): 11.27 mg/dL; POTASSIUM (120 h, time 5 day): 6.34 MEQ/L; SODIUM (120 h, time 5 day): 145.63 MEQ/L; TOTAL BILIRUBIN (120 h, time 5 day): 0.13 mg/dL; TOTAL PROTEIN (120 h, time 5 day): 5.33 G/DL; URIC ACID (120 h, time 5 day): 1.83 mg/dL
